Patent publication US20260000685A1, “PHARMACEUTICAL COMPOSITION FOR PREVENTING OR TREATING DEGENERATIVE BRAIN DISEASES, COMPRISING CANNABINOIDS AS ACTIVE INGREDIENT, AND USES THEREOF” (NEOCANNBIO CO., LTD., priority 2022, published 2026)

Experiments:
primary neuronal cells = assay: Inhibition of Aβ1-42-induced neuron apoptosis (MTS cell viability); format: cell-based, ICR mice; details: for cell survival rate level: different concentrations with Aβ1-42 (5 μM), 24 hours, compared to control treated with Aβ1-42 alone, FIG. 2; for neuron apoptosis inhibition efficacy: same concentration of CBDA, CBD, THCA and THC, Memantine as positive control, FIG. 3
Experimental: Specifically, primary neuronal cells derived from ICR mice were seeded in 96-wells at 5×10^5 cells per well and cultured for 6 days. Afterwards, the six compounds of Example 1 above were treated at different concentrations and Aβ1-42 (5 μM) was treated to induce neuron apoptosis, and the cells were treated together for 24 hours. Afterwards, a MTS solution was added to the medium and incubated for 2 hours. Cytotoxicity (cell viability) was measured using a microplate spectrophotometer (Bio-Tek Power Wave XS, Winooski, VT, USA), and absorbance was measured at 490 nm.
Next, the neuron apoptosis inhibition efficacy for the same concentration of CBDA, CBD, THCA and THC was evaluated using the same method as above. Memantine, known as an Alzheimer's treatment, was used as a positive control group.

[1] = tested on: APP (Amyloid Precursor Protein); assay: Western blotting of APP expression in Aβ1-42-treated primary neuronal cells; format: cell-based, ICR mice; details: CBDA (6 μM) or THCA (5 μM), with Aβ1-42 (5 μM), 24 hours; FIG. 6
Experimental: Specifically, primary neuronal cells derived from ICR mice were cultured for 6 days, and then treated with CBDA, THCA, THC, or CBN compounds while treating with Aβ1-42 (5 μM), and treated together for 24 hours. Next, Western blotting was conducted to confirm the expression levels of APP (Amyloid Precursor Protein), polymeric Aβ, and oligomeric AB in the cells.
(§1) To conduct Western blotting, tissues were homogenized in radioimmunoprecipitation assay buffer (Cell Signaling) to acquire tissue lysates. Tissue protein concentrations were determined using the Bio-Rad protein assay (Bio-Rad, Hercules, CA, USA), and Western blot analysis was conducted using 80-120 μg of protein. Next, the Western blotting samples prepared using the proteins were separated using 12% SDS-PAGE and transferred to a polyvinylidene fluoride membrane (PVDF) (Merck Millipore, Burlington, MA, USA; 0.4 μm). The PVDF was blocked with tris-buffered saline including 5% bovine serum albumin and Tween-20, and incubated with primary antibodies overnight at 4° C. After primary antibody incubation, the samples were incubated with HRP-conjugated secondary antibody (Sigma; 1:5000) for 1 hour at room temperature, and immunodetection was conducted using an enhanced chemiluminescence detection kit (GE Healthcare, Chicago, IL, USA).

[2] = tested on: primary cortical neuron cells; assay: Intracellular calcium concentration in neuronal cells (fluo-4 AM fluorescence imaging); format: cell-based; details: CBDA (6.25 μM), THCA (12.5 μM), THC (12.5 μM) with Aβ1-42 (5 μM), 24 hours; compared to Aβ1-42 alone; FIG. 8 and 9
Experimental: Specifically, primary cortical neuron cells were seeded in 96-wells at 5×10^5 cells per well and cultured for 6 days. […] Next, to measure the concentration of calcium ions in neuronal cells by detecting Ca^2+ using fluorescence imaging, the cells were washed with PBS and treated with 10 μM Ca^2+ indicator fluo-4 AM (Thermo) for […]. The stained sections were washed with PBS, covered with Prolong Gold Antifide Reagent (Invitrogen, Carlsbad, CA, USA) including DAPI nuclear stain, and observed using a microscope (Carl Zeiss, Oberkochen, Germany). Fluo-4 AM fluorescence signal intensity was measured using the Image J analysis program (National Institute of Health, Bethesda, […], USA).

[3] = tested on: Alzheimer's animal model (Aβ1-42 treated mice); assay: Morris water maze test in Aβ1-42 Alzheimer's animal model; format: in vivo, ICR mice; details: compared to mice treated only with Aβ1-42; for learning ability (finding submerged platform during training session): CBDA 6.25 μM or THCA 12.5 μM, 3 μL/mouse into hippocampus, FIGS. 11 and 12; for time spent in the target quadrant (probe test) / time spent in the platform area (probe test) / number of times crossed the platform area (probe test): probe test on the 5th day; for time spent in the target quadrant (probe test): FIG. 13A; for time spent in the platform area (probe test): FIG. 13B; for number of times crossed the platform area (probe test): FIG. 13C
Experimental: Female ICR mice (8 weeks old) used in the experiment were purchased from Coretech (Pyeongtaek, Korea). Mice were housed in the animal care facility of the Korea Institute of Science and Technology (KIST) (temperature 22±2° C., humidity 40-60%, 12-hour light/dark cycle). Mice were housed in an environment with free access to food and water. All animal experiments were conducted in accordance with the protocol approval of the Animal Ethics Committee of our institution.
Next, to create an animal model, mice were randomly selected and divided into four groups as follows: PBS treated group (PBS+PBS), Aβ1-42 treated group (Aβ1-42 +PBS) (Alzheimer's animal model), CBDA treated group (Δβ1-42+CBDA (6.25 µM, 3 μL/mouse)), and THCA treated group (Δβ1-42+THCA (12.5 μM, 3 μL/mouse)).
After anesthetizing the isolated mice by intraperitoneal (i.p.) injection of avertin (250 mg/kg), the mice were fixed in a stereotaxic apparatus, and CBDA, THCA, Aβ1-42, or PBS (3 μl/15 min/mouse) were gradually delivered to the hippocampus using a Hamilton syringe (coordinates of bregma: mediolateral (ML)=1.30 mm, anteroposterior (AP)=−2.00 mm, dorsoventral=−2.20 mm).
Specifically, a circular tank (diameter 90 cm, height 50 cm, water temperature 22 ±2° C.) was used for the test, and the tank consisted of four quadrants filled with water. An escape platform (diameter 6 cm, height 29 cm) was submerged 1 cm below the water surface in the center of one of the four quadrants. Experimental mice were trained for 4 days to learn and memorize visual cues placed outside the tank indicating the platform location. The swimming paths of the experimental mice were recorded with a camera connected to a video recorder and path tracking software (EthoVision; Noldus Information Technology, Wageningen, The Netherlands). Four tests were conducted daily during the 4-day training period. During each trial, the experimental mice were allowed 60 seconds to find the hidden platform and an additional 30 seconds to remain on the platform. […] The average time it took each experimental mouse to find the platform (average escape latency) was recorded. Probe tests were conducted 4 days later in the same manner without the platform. Each experimental mouse was allowed to move freely for 60 seconds, which was recorded. Videos were analyzed using tracking software (EthoVision; Noldus Information Technology, Wageningen, The Netherlands) to calculate the time spent in the target quadrant area and the number of crossings in the platform area.

amyloid beta (Aβ) = assay: Western blot of Aβ in hippocampal tissues of animal model; format: in vivo, ICR mice; details: day 19; compared to Aβ1-42 treated group; FIG. 15
Experimental: as §1
Specifically, hippocampal tissues were acquired on day 19 from the animal models created in Example 7 above (PBS treated group, Aβ1-42 treated group, CBDA treated group, and THCA treated group), and Western blot analysis was conducted on the hippocampal tissues to evaluate the expression levels of APP (Amyloid Precursor Protein), polymeric Aβ, and oligomeric Aβ.

[4] = tested on: p-TrkB (Tyrosine receptor kinase B); assay: Western blot of p-TrkB in hippocampal tissues of animal model; format: in vivo, ICR mice; details: day 19; compared to Aβ1-42 treated group; FIG. 17
Experimental: as §1
Specifically, hippocampal tissues were acquired on day 19 from the animal models created in Example 7 above (PBS treated group, Aβ1-42 treated group, CBDA treated group, and THCA treated group), and Western blot analysis was conducted on the hippocampal tissues to evaluate the expression levels of BDNF, p-CREB, and p-TrKB.

Compound	cell survival rate level (primary neuronal cells)	neuron apoptosis inhibition efficacy (primary neuronal cells)	expression level of APP [1]	intracellular calcium ion concentration [2]	learning ability (finding submerged platform during training session) [3]	time spent in the target quadrant (probe test) [3]	time spent in the platform area (probe test) [3]	number of times crossed the platform area (probe test) [3]	expression level of Aβ in hippocampal tissues (amyloid beta (Aβ))	expression level of p-TrKB in hippocampal tissues [4]
C=C(C)[C@@H]1CCC(C)=C[C@H]1c1c(O)cc(CCCCC)c(C(=O)O)c1O [CBDA]	significantly increased	better neuron apoptosis inhibition efficacy	significantly reduced	significantly reduced	significantly enhanced	spent more time	spent more time	increased	significantly reduced	significantly increased
CCCCCc1cc2c(c(O)c1C(=O)O)[C@@H]1C=C(C)CC[C@H]1C(C)(C)O2 [THCA, (6aR, 10aR)-1-Hydroxy-6,6,9-trimethyl-3-pentyl-6a,7,8,10a-tetrahydro-6H-benzo[c]chromene-2-carboxylic acid]	significantly increased	better neuron apoptosis inhibition efficacy	significantly reduced	significantly reduced	significantly enhanced	spent more time	spent more time	increased	significantly reduced	significantly increased
